pEC50, pIC50, pKd: −log10 of the molar value.
Legend:
[1] = target: T1, von Hippel-Lindau disease tumor suppressor (Homo sapiens, UniProt P40337); experiment: Binding affinity to VHL (unknown origin) assessed as dissociation constant by fluorescence polarization assay
[2] = target: T2, von Hippel-Lindau disease tumor suppressor/Androgen receptor (Homo sapiens, UniProt P10275+P40337); experiment: PROTAC activity at VHL/AR in human LNCaP cells assessed as induction of AR degradation by Western blot analysis; format: cell-based
Target sequence in this assay (P10275 whole entry): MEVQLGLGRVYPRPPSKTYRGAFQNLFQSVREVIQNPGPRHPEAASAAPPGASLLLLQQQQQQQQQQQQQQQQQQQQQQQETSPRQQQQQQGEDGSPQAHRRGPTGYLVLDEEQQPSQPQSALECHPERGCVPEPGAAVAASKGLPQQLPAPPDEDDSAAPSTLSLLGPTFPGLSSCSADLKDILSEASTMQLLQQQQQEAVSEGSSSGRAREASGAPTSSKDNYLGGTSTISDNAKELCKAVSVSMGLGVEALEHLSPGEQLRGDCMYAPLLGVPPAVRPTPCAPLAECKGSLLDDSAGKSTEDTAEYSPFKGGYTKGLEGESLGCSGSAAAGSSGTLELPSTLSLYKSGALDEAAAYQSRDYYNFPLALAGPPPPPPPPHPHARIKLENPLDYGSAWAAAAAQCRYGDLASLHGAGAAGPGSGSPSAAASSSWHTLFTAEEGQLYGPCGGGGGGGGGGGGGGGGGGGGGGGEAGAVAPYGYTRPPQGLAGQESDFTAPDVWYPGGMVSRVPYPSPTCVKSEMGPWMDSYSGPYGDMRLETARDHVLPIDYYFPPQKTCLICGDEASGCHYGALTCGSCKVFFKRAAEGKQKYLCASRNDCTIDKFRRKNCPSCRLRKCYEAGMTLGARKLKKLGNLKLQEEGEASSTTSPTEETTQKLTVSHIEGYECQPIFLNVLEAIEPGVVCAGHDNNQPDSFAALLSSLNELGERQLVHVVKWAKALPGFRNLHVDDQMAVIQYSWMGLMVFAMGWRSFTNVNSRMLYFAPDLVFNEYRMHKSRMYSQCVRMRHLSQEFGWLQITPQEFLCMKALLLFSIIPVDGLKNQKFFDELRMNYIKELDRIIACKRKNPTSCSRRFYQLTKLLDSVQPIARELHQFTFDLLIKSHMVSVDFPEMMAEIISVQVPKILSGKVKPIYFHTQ
Target sequence in this assay (P40337 whole entry): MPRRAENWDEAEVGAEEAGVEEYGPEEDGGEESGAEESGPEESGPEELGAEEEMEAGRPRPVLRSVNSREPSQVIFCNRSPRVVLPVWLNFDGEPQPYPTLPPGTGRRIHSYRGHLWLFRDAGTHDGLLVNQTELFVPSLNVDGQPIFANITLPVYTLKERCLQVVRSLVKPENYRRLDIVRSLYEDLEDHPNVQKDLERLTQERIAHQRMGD

[3] = target: T2, von Hippel-Lindau disease tumor suppressor/Androgen receptor; experiment: PROTAC activity at VHL/AR in human LNCaP cells assessed as maximum degradation of AR at 75 uM incubated for 16 hrs by Western blot analysis relative to control; format: cell-based
Target sequence in this assay (P10275 whole entry, looked up): as the sequence (P10275 whole entry) above
Target sequence in this assay (P40337 whole entry, looked up): as the sequence (P40337 whole entry) above

[4] = tested on: von Hippel-Lindau disease tumor suppressor/Epidermal growth factor receptor (Homo sapiens), P00533+P40337 [L858R,T790M]; experiment: PROTAC activity at VHL/EGFR L858R/T790M double mutant in human NCI-H1975 cells assessed as maximal degradation of EGFR incubated for 24 hrs by immunoblotting analysis relative to control; format: cell-based
[5] = target: T3, von Hippel-Lindau disease tumor suppressor/Estrogen receptor (Homo sapiens, UniProt P03372+P40337); experiment: PROTAC activity at VHL E3 ligase/ERalpha in human MCF7 cells assessed as reduction in ERalpha protein level by Western blot analysis; format: cell-based
[6] = target: T3, von Hippel-Lindau disease tumor suppressor/Estrogen receptor; experiment: PROTAC activity at VHL E3 ligase/ERalpha in human T47D cells assessed as maximal degradation of ERalpha protein level at 7.7 nM by Western blot analysis relative to control; format: cell-based
Target sequence in this assay (P03372 whole entry, looked up): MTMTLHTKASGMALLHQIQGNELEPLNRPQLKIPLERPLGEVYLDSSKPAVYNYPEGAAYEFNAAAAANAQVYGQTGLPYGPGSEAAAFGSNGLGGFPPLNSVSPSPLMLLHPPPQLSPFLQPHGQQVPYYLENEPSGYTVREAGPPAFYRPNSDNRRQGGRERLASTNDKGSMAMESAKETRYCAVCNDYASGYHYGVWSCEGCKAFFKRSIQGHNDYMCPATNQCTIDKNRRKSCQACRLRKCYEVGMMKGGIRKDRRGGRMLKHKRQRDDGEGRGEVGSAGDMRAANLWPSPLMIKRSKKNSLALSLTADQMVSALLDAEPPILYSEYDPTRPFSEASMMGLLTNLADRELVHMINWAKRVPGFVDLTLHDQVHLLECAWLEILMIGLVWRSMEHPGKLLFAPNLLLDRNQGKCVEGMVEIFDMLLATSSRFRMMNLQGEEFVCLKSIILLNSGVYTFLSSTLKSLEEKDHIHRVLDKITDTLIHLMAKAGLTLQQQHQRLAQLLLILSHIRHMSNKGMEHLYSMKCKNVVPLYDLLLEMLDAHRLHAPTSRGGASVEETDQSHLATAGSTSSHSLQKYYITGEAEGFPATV
Target sequence in this assay (P40337 whole entry, looked up): as the sequence (P40337 whole entry) above

[7] = target: T1, von Hippel-Lindau disease tumor suppressor; experiment: Inhibition of NanoLuc-fused VHL (unknown origin) transfected in live HEK293 cells using NanoGlo as substrate incubated for 1 hrs by tracer based NanoBRET assay; format: cell-based
[8] = target: T1, von Hippel-Lindau disease tumor suppressor; experiment: Binding affinity to NanoLuc-fused VHL (unknown origin) transfected in live HEK293 cells using NanoGlo as substrate assessed as dissociation constant incubated for 1 hrs by tracer based NanoBRET assay; format: cell-based
[9] = target: T1, von Hippel-Lindau disease tumor suppressor; experiment: Inhibition of VHL (unknown origin)
[10] = target: T4, von Hippel-Lindau disease tumor suppressor/Bromodomain-containing protein 2 (Homo sapiens, UniProt P25440+P40337); experiment: PROTAC activity at human VHL/BRD2 in human HeLa cells assessed as […] incubated for 16 hrs by Western blot analysis; format: cell-based
[11] = target: T5, von Hippel-Lindau disease tumor suppressor/Bromodomain-containing protein 3 (Homo sapiens, UniProt Q15059+P40337); experiment: PROTAC activity at human VHL/BRD3 in human HeLa cells assessed as […] incubated for 16 hrs by Western blot analysis; format: cell-based
Target sequence in this assay (Q15059 whole entry): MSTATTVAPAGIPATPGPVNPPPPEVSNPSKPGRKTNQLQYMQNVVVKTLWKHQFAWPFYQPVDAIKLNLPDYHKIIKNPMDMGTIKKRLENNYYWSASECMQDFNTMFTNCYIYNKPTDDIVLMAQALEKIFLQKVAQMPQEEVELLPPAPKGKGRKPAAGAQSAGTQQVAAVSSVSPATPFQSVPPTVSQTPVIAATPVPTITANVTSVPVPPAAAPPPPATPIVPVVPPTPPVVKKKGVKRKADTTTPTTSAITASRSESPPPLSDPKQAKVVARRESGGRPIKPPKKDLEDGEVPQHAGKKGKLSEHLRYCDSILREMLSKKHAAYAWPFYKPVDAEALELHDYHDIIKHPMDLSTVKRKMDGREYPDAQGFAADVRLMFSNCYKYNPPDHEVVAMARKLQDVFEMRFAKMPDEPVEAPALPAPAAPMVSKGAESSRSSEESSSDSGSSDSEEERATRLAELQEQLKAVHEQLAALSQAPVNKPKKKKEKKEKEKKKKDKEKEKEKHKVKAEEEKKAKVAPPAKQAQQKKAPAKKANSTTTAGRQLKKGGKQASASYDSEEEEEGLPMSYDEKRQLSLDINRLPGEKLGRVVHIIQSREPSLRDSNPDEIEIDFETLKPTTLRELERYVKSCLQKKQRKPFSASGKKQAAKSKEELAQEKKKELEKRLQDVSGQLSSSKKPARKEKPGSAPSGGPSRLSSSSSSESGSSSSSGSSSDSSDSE
Target sequence in this assay (P40337 whole entry): as the sequence (P40337 whole entry) above

[12] = target: T4, von Hippel-Lindau disease tumor suppressor/Bromodomain-containing protein 2; experiment: PROTAC activity at human VHL/BRD2 in human HeLa cells assessed as maximum degradation of BRD2 measured after 18 hrs by Western blot analysis relative to control; format: cell-based
[13] = target: T5, von Hippel-Lindau disease tumor suppressor/Bromodomain-containing protein 3; experiment: PROTAC activity at human VHL/BRD3 in human HeLa cells assessed as maximum degradation of BRD3 measured after 18 hrs by Western blot analysis relative to control; format: cell-based
[14] = PROTAC activity at human VHL/BRD4 in human HeLa cells assessed as degradation of BRD4 incubated for 16 hrs by Western blot analysis
[15] = tested on: von Hippel-Lindau disease tumor suppressor/Bromodomain-containing protein 4; experiment: PROTAC activity at human VHL/BRD4 in human HeLa cells assessed as maximum degradation of BRD4 measured after 18 hrs by Western blot analysis relative to control
[16] = target: T3, von Hippel-Lindau disease tumor suppressor/Estrogen receptor; experiment: PROTAC activity at VHL E3 ligase/ERalpha in human T47D cells assessed as maximal degradation of ERalpha protein level at 10.3 nM by Western blot analysis relative to control; format: cell-based
Target sequence in this assay (P03372 whole entry, looked up): as the sequence (P03372 whole entry, looked up) above
Target sequence in this assay (P40337 whole entry, looked up): as the sequence (P40337 whole entry) above

[17] = PROTAC activity at VHL/N-terminal His-tagged human p38alpha expressed in […] assessed as p38alpha degradation
[18] = tested on: von Hippel-Lindau disease tumor suppressor/Mitogen-activated protein kinase 14; experiment: PROTAC activity at VHL/N-terminal His-tagged human p38alpha expressed in […] assessed as maximal degradation relative to control
[19] = target: T4, von Hippel-Lindau disease tumor suppressor/Bromodomain-containing protein 2; experiment: PROTAC activity at VHL/BRD2 in human 22Rv1 cells assessed as induction of BRD2 degradation by Immunoblot analysis; format: cell-based
[20] = target: T5, von Hippel-Lindau disease tumor suppressor/Bromodomain-containing protein 3; experiment: PROTAC activity at VHL/BRD3 in human 22Rv1 cells assessed as induction of BRD3 degradation by Immunoblot analysis; format: cell-based
Target sequence in this assay (Q15059 whole entry): as the sequence (Q15059 whole entry) above
Target sequence in this assay (P40337 whole entry): as the sequence (P40337 whole entry) above

CWR22R = experiment: Antiproliferative activity against human 22Rv1 cells assessed as reduction in cell viability incubated for 48 hrs by MTT assay; format: functional, cell-based; details: 22Rv1, 48 h
[21] = target: von Hippel-Lindau disease tumor suppressor/Bromodomain-containing protein 4; experiment: PROTAC activity at VHL/BRD4 in human 22Rv1 cells assessed as induction of BRD4 degradation by Immunoblot analysis
[22] = tested on: von Hippel-Lindau disease tumor suppressor/Bromodomain-containing protein 4; experiment: PROTAC activity at VHL/BRD4 in human VCaP cells assessed as maximum degradation of BRD4 by Western blot analysis relative to control
[23] = target: T6, Von Hippel-Lindau disease tumor suppressor/Elongin B/Elongin C (Homo sapiens, UniProt P40337); experiment: Inhibition of VHL (unknown origin) (1 to 213 residues)/ElonginC/ElonginB expressed in Escherichia coli BL21 (DE3) using (FAM)-labeled HIF-1alpha peptide as substrate incubated for 2 hrs by fluorescence polarization assay
T6 sequence (P40337 whole entry, looked up, the tested form may be a part): as the sequence (P40337 whole entry) above

[24] = target: T6, Von Hippel-Lindau disease tumor suppressor/Elongin B/Elongin C; experiment: Inhibition of VHL/Elongin B/Elogin C (unknown origin) using FAM-DEALA-Hyp-YIPD as substrate by fluorescence polarization assay; format: protein-complex assay
[25] = target: von Hippel-Lindau disease tumor suppressor/Bromodomain-containing protein 4 (Homo sapiens, UniProt O60885+P40337); experiment: PROTAC activity at human VHL/BRD4 in human HeLa cells assessed as degradation of BRD4 incubated for 24 hrs by Western blot analysis; format: cell-based
Chain of von Hippel-Lindau disease tumor suppressor/Bromodomain-containing protein 4 (Homo sapiens, UniProt O60885+P40337) (P40337 whole entry, looked up, other chains not shown): as the sequence (P40337 whole entry) above

[26] = target: T2, von Hippel-Lindau disease tumor suppressor/Androgen receptor; experiment: PROTAC activity at VHL/AR in human VCaP cells assessed as induction of AR degradation by Western blot analysis; format: cell-based
Target sequence in this assay (P10275 whole entry): as the sequence (P10275 whole entry) above
Target sequence in this assay (P40337 whole entry): as the sequence (P40337 whole entry) above

[27] = target: T2, von Hippel-Lindau disease tumor suppressor/Androgen receptor; experiment: PROTAC activity at VHL/AR-V7 in human 22Rv1 cells assessed as induction of AR degradation by Western blot analysis; format: cell-based

T1 sequence (P40337 whole entry): as above

Cc1cc(-c2scnc2C)c(C)cc1CNC(=O)[C@@H]1C[C@@H](O)CN1C(=O)[C@H](NC(=O)C1(C#N)CC1)C(C)(C)C
pKd [1]: 6.28

Cc1ncsc1-c1ccc([C@H](C)NC(=O)[C@@H]2C[C@@H](O)CN2C(=O)[C@H](NC(=O)C2(F)CC2)C(C)(C)C)cc1F
pKd [1]: 7.14

Cc1cc([C@H](C(=O)N2C[C@H](S(=O)(=O)F)C[C@H]2C(=O)N[C@@H](CC(=O)N2CCC(C#Cc3ccc(C(=O)N[C@H]4C(C)(C)[C@H](Oc5ccc(C#N)c(Cl)c5)C4(C)C)cc3)CC2)c2ccc(-c3scnc3C)cc2)C(C)C)on1
DC50 [2]: 212 nM | Emax [3]: 59%

Cc1ncsc1-c1ccc(CNC(=O)[C@H]2C[C@H](O)CN2C(=O)[C@H](NC(=O)CCCCCOCCCCOCCCCOc2cc3ncnc(Nc4ccc(F)c(Cl)c4)c3cc2NC(=O)/C=C/CN(C)C)C(C)(C)C)cc1
Emax [4]: 79.1%

Cc1ncsc1-c1ccc([C@H](C)NC(=O)[C@@H]2C[C@@H](O)CN2C(=O)[C@@H](NC(=O)CCCCOc2ccc(/C=C/NC(=O)c3ccc(C(=O)c4c(-c5ccc(O)cc5)sc5cc(O)ccc45)cc3)cc2)C(C)(C)C)cc1
DC50 [5]: 10 nM | Emax [6]: > 95%

CC(=O)N[C@H](C(=O)N1C[C@H](O)C[C@H]1C(=O)N[C@@H](C)c1ccc(-c2scnc2C)cc1)C(C)(C)C
pIC50 [7]: 6.89 | pKd [8]: 7.20

CC(=O)N[C@H](C(=O)N1C[C@H](O)C[C@H]1C(=O)N[C@H](C)c1ccc(-c2scnc2C)cc1)C(C)(C)C
pIC50 [7]: 4.59

Cc1cc(CC(=O)N2C[C@H](O)C[C@H]2C(=O)NCc2cccc(Cl)c2)on1
pIC50 [9]: 6.93

Cc1ncsc1-c1ccc([C@H](C)NC(=O)[C@H]2C[C@H](O)CN2C(=O)[C@H](NC(=O)COCCOCCOCCNC(=O)C[C@@H]2N=C(c3ccc(Cl)cc3)c3c(sc(C)c3C)-n3c(C)nnc32)C(C)(C)C)cc1
DC50 [10]: 40 nM | DC50 [11]: 100 nM | Emax [12]: 98% | Emax [13]: 100% | DC50 [14]: 3 nM | Emax [15]: 100%

Cc1ncsc1-c1ccc([C@H](C)NC(=O)[C@@H]2C[C@@H](O)CN2C(=O)[C@@H](NC(=O)CCCCOc2ccc(CCNC(=O)c3ccc(C(=O)c4c(-c5ccc(O)cc5)sc5cc(O)ccc45)cc3)cc2)C(C)(C)C)cc1
Emax [6]: 98% | Emax [16]: 98%

Cc1ncsc1-c1ccc(CNC(=O)[C@@H]2C[C@@H](O)CN2C(=O)[C@H](NC(=O)C2(C#N)CC2)C(C)(C)C)cc1F
pKd [1]: 7.01

COc1cc2c(Oc3ccc(NC(=O)C4(C(=O)Nc5ccc(F)cc5)CC4)cc3F)ccnc2cc1OCCOCCOCCOc1cc(-c2scnc2C)ccc1CNC(=O)[C@@H]1C[C@@H](O)CC1C(=O)[C@H](C(C)C)C1Cc2ccccc2C1=O (stereo partly specified)
DC50 [17]: 66.2 nM | Emax [18]: 99.4%

Cc1cc(-c2scnc2C)ccc1[C@H](C)NC(=O)[C@@H]1C[C@@H](O)CN1C(=O)[C@H](NC(=O)C1(F)CC1)C(C)(C)C
pKd [1]: 7.43

Cc1ncsc1-c1ccc([C@H](C)NC(=O)[C@@H]2C[C@@H](O)CN2C(=O)[C@@H](NC(=O)COCCOCCOCCNC(=O)C[C@@H]2N=C(c3ccc(Cl)cc3)c3c(sc(C)c3C)-n3c(C)nnc32)C(C)(C)C)cc1
DC50 [19]: < 5 nM | DC50 [20]: < 5 nM | pEC50 (CWR22R): 7.05 | DC50 [21]: < 5 nM | Emax [22]: > 99%

Cc1ncsc1-c1ccc(CNC(=O)[C@@H]2C[C@@H](O)CN2C(=O)c2cccc(N)c2C)cc1
pIC50 [23]: 5.00

Cc1cc(CC(=O)N2C[C@H](O)C[C@H]2C(=O)NCc2ccc(-c3ocnc3C)cc2)on1
pIC50 [24]: 4.90

COc1cc(-c2scnc2C)cc(OC)c1CNC(=O)[C@@H]1C[C@@H](O)CN1C(=O)[C@H](NC(=O)C1(C#N)CC1)C(C)(C)C
pKd [1]: 5.20

Cc1cc([C@H](C(=O)N2C[C@H](S(=O)(=O)F)C[C@H]2C(=O)N[C@@H](CC(=O)N2CCC(C#Cc3ccc(C(=O)N[C@H]4C(C)(C)[C@H](Oc5ccc(C#N)c(C(F)(F)F)c5)C4(C)C)cc3)CC2)c2ccc(-c3scnc3C)cc2)C(C)C)on1
DC50 [2]: 527 nM | Emax [3]: 54%

Cc1ncsc1-c1cc2c(cc1F)[C@@H](NC(=O)[C@@H]1C[C@@H](O)CN1C(=O)[C@H](NC(=O)C1(F)CC1)C(C)(C)C)CCCC2
pKd [1]: 5.98

COc1cccc(/C=C2\Oc3cc(OCC(=O)N4CC(O)C[C@H]4C(=O)O)ccc3C2=O)c1 (stereo partly specified)
pIC50 [23]: 5.64

CC(=O)N[C@H](C(=O)N1C[C@H](O)[C@H](F)[C@H]1C(=O)Nc1ccc(-c2scnc2C)cc1)C(C)(C)C
DC50 [25]: 1 nM

COc1cc2c(Oc3ccc(NC(=O)C4(C(=O)Nc5ccc(F)cc5)CC4)cc3F)ccnc2cc1OCCCCOCCCCOCC(=O)N[C@@H](C(=O)N1C[C@H](O)C[C@H]1C(=O)NCc1ccc(-c2scnc2C)cc1)C(C)(C)C
DC50 [17]: 7.16 nM | Emax [18]: 97.4%

COc1cc(-c2scnc2C)c(F)cc1CNC(=O)[C@@H]1C[C@@H](O)CN1C(=O)[C@H](NC(=O)C1(F)CC1)C(C)(C)C
pKd [1]: 6.87

Cc1cc(-c2scnc2C)ccc1[C@H](C)NC(=O)[C@@H]1C[C@@H](O)CN1C(=O)[C@H](NC(=O)C1(C#N)CC1)C(C)(C)C
pKd [1]: 7.07

CC(=O)N[C@H](C(=O)N1C[C@H](O)[C@@H](F)[C@H]1C(=O)Nc1ccc(-c2scnc2C)cc1)C(C)(C)C
DC50 [25]: 10 nM

Cc1ncsc1-c1ccc([C@H](C)NC(=O)[C@@H]2C[C@@H](O)CN2C(=O)[C@H](NC(=O)C2(C#N)CC2)C(C)(C)C)cc1F
pKd [1]: 6.73

O=C(NCc1ccc(Cl)cc1)[C@@H]1C[C@@H](O)CN1C(=O)c1ccccc1Cl
pIC50 [24]: 4.28

Cc1ncsc1-c1ccc([C@@H](C)NC(=O)[C@H]2C[C@H](O)CN2C(=O)[C@H](NC(=O)CCCCCNC(=O)COc2ccccc2-c2csc(N3CCOCC3)n2)C(C)(C)C)cc1
DC50 [26]: 2000 nM | DC50 [27]: 370 nM

Cc1cc(-c2scnc2C)ccc1CNC(=O)[C@@H]1C[C@@H](O)CN1C(=O)[C@H](NC(=O)C1(C#N)CC1)C(C)(C)C
pKd [1]: 6.83
